US10576097B2, “URLC10-derived peptide and vaccine containing same” (ONCOTHERAPY SCIENCE, INC., priority 2014, dated 2020)

Tests used:
[1] = system: COS7 cells transfected with both full-length URLC10 and the HLA-A*1101 gene; assay: Specific CTL activity against target cells expressing URLC10 and HLA-A*1101; format: cell-based, African green monkey
Description: A cDNA encoding the open-reading frame of a target gene or HLA-A*1101 was amplified by PCR. The PCR-amplified product was cloned into an expression vector. Either or both of the target gene-expressing vector and the HLA-A*1101-expressing vector were transfected into COS7, which is a cell line negative for the target gene and HLA, using Lipofectamine 2000 (Invitrogen) following the manufacturer's recommended protocol. Two days after transfection, the transfected cells were harvested using versene (Invitrogen), and used as the target cell for CTL activity assay (5×10^4 cells/well).
The CTL clone established against URLC10-A11-10-132 (SEQ ID NO: 13) was investigated for its ability to recognize target cells expressing URLC10 and the HLA-A*1101 molecule. COS7 cells transfected with both full-length URLC10 and the HLA-A*1101 gene (a specific model of target cells expressing URLC10 and the HLA-A*1101 gene) were prepared as the target cell. COS7 cells transfected with either full-length URLC10 or HLA-A*1101 were prepared as the control.

[2] = system: peptide-pulsed C1R-A11 cells; assay: IFN-gamma ELISA of CTL lines and CTL clones (HLA-A*1101); format: cell-based, human
Experimental: (§1) CTLs were propagated in culture using methods similar to those disclosed by Riddell et al. (Walter E A et al., N Engl J Med 1995, 333(16): 1038-44; Riddell S R et al., Nat Med 1996, 2(2): 216-23). The CTLs were co-cultured in a total of 25 ml AIM-V medium containing 5% AS (AIM-V/5% AS) and 40 ng/ml anti-CD3 antibody with two types of Mitomycin C-treated human B lymphoblastoid cell lines at 5×10^6 cells/flask. One day after beginning of the culturing, 120 IU/ml IL-2 was added to the culture. On days 5, 8 and 11, a fresh AIM-V/5% AS medium containing 30 IU/ml IL-2 was added to the culture (Tanaka H et al., Br J Cancer 2001, 84(1): 94-9; Umano Y et al., Br J Cancer 2001, 84(8): 1052-7; Uchida N et al., Clin Cancer Res 2004, 10(24): 8577-86; Suda T et al., Cancer Sci 2006, 97(5): 411-9; Watanabe T et al., Cancer Sci 2005, 96(8): 498-506).
Dilution of CTLs was carried out to make 0.3, 1 and 3 cells/well in 96 round-bottomed microtiter plates (Nalge Nunc International). The CTLs were co-cultured with two types of Mitomycin C-treated human B lymphoblastoid cell lines at 1×10^4 cells/well in a total of 150 micro-l/well AIM-V/5% AS medium with 30 ng/ml anti-CD3 antibody and 125 IU/ml IL-2. Ten days later, IL-2 was added to the medium at 50 micro-1/well to reach a final concentration of 125 IU/ml. […]

peptide-pulsed C1R-A11 = assay: In vitro CTL induction, IFN-gamma ELISPOT assay (HLA-A*1101); format: cell-based, human; settings: CTLs induced from HLA-A*1101-positive donors, against peptide-pulsed C1R-A11, compared with control
Description: (§2) Monocyte-derived dendritic cells (DCs) were used as the antigen-presenting cell to induce a cytotoxic T lymphocyte (CTL) response against peptides presented on human leukocyte antigens (HLAs). As described in the other sections, DCs were generated in vitro (Nakahara S et al., Cancer Res 2003, 63(14): 4112-8). Specifically, peripheral-blood mononuclear cells isolated from healthy volunteers (HLA-A*1101-positive) with the Ficoll-Paque plus solution (Pharmacia) were separated by attaching to plastic tissue culture dishes (Becton Dickinson) and concentrated as a monocyte fraction. The monocyte-concentrated population was cultured in the presence of 1000 IU/ml granulocyte macrophage colony-stimulating factor (R&D System) and 1000 IU/ml interleukin(IL)-4 (R&D System) in an AIM-V medium (Invitrogen) containing 2% heat-inactivated autologous serum (AS). After seven days of culturing, the cytokine-induced DCs were pulsed with 20 micro-g/ml each of the synthesized peptides in an AIM-V medium at 37 degrees C. for three hours in the presence of 3 micro-g/ml beta 2-microglobulin. The generated cells appeared to express on their cell surface DC-associated molecules such as CD80, CD83, CD86 and HLA class II (data not shown). Next, these peptide-pulsed DCs were inactivated by X-ray irradiation (20 Gy), and mixed in a 1:20 ratio with autologous CD8^+ T cells obtained by positive selection using the CD8 Positive Isolation Kit (Dynal). These culture products were seeded in a 48-well plate (Corning). Each well was made to contain 1.5×10^4 peptide-pulsed DCs, 3×10^5 CD8^+ T cells and 10 ng/ml IL-7 (R&D System) in 0.5 ml of the AIM-V/2% AS medium. Three days later, these culture products were added with a final concentration of 20 IU/ml IL-2 (CHIRON). On day 7 and day 14, T cells were further stimulated with peptide-pulsed autologous DCs. The DCs were prepared every time by the same method as above. On day 21, after the third peptide stimulation, CTLs were examined against the peptide-pulsed C1R-A11 by a human interferon (IFN)-gamma enzyme-linked immunospot (ELISPOT) assay (Tanaka H et al., Br J Cancer 2001, 84(1): 94-9; Umano Y et al., Br J Cancer 2001, 84(8): 1052-7; Uchida N et al., Clin Cancer Res 2004, 10(24): 8577-86; Suda T et al., Cancer Sci 2006, 97(5): 411-9; Watanabe T et al., Cancer Sci 2005, 96(8): 498-506).
To examine specific CTL activity, an IFN-gamma ELISPOT assay and an IFN-gamma enzyme-linked immunosorbent assay (ELISA) were performed. Specifically, peptide-pulsed C1R-A11 (1×10^4 cells/well) was prepared as the stimulator cell. The induced CTLs, i.e., CTL lines and CTL clones, were used as the responder cell. The IFN-gamma ELISPOT assay and IFN-gamma ELISA were performed according to the manufacturer's manual.

peptide-pulsed C1R-A03 = assay: In vitro CTL induction, IFN-gamma ELISPOT assay (HLA-A*0301); format: cell-based, human; settings: CTLs induced from HLA-A*0301-positive donors, against peptide-pulsed C1R-A03, compared with control
Description: as §2, with “(HLA-A*0301-positive)” for “(HLA-A*1101-positive)”, “C1R-A03” for “C1R-A11”
(§3) To examine specific CTL activity, an IFN-gamma ELISPOT assay and an IFN-gamma enzyme-linked immunosorbent assay (ELISA) were performed. Specifically, peptide-pulsed C1R-A03 (1×10^4 cells/well) was prepared as the stimulator cell. The induced CTLs, i.e., CTL lines and CTL clones, were used as the responder cell. The IFN-gamma ELISPOT assay and IFN-gamma ELISA were performed according to the manufacturer's manual.

[3] = system: C1R-A03 cells pulsed with the respective peptide; assay: IFN-gamma ELISA of CTL lines and CTL clones (HLA-A*0301); format: cell-based, human
Experimental: as §1
Dilution of CTLs was carried out to make 1 and 10 cells/well in 96 round-bottomed microtiter plates (Nalge Nunc International). The CTLs were co-cultured with two types of Mitomycin C-treated human B lymphoblastoid cell lines at 1×10^4 cells/well in a total of 150 micro-l/well 5% AS-containing AIM-V (AIM-V/5% AS) medium with 30 ng/ml anti-CD3 antibody and 125 IU/ml IL-2. Ten days later, IL-2 was added to the medium at 50 micro-l/well to reach a final concentration of 125 IU/ml. On day 14, the CTL activity was tested, and the CTL clones were propagated using the same method as described above (Uchida N et al., Clin Cancer Res 2004, 10(24): 8577-86; Suda T et al., Cancer Sci 2006, 97(5): 411-9; Watanabe T et al., Cancer Sci 2005, 96(8): 498-506).
as §3

[4] = system: COS7 cells transfected with both full-length URLC10 and the HLA-A*0301 gene; assay: Specific CTL activity against target cells expressing URLC10 and HLA-A*0301; format: cell-based, African green monkey
Description: A cDNA encoding the open-reading frame of a target gene or HLA-A*0301 was amplified by PCR. The PCR-amplified product was cloned into an expression vector. Either or both of the target gene-expressing vector and the HLA-A*0301-expressing vector were transfected into […], which is a cell line negative for the target gene and HLA, using Lipofectamine 2000 (Invitrogen) following the manufacturer's recommended protocol. Two days after transfection, the transfected cells were harvested using versene (Invitrogen), and used as the target cell for CTL activity assay (5×10^4 cells/well).
The CTL clone established against URLC10-A03-11-131 (SEQ ID NO: 31) was investigated for its ability to recognize target cells expressing URLC10 and the HLA-A*0301 molecule. COS7 cells transfected with both full-length URLC10 and the HLA-A*0301 gene (a specific model of target cells expressing URLC10 and the HLA-A*0301 gene) were prepared as the target cell. COS7 cells transfected with either full-length URLC10 or HLA-A*0301 were prepared as the control.

[5] = CTL line against peptide-pulsed versus non-pulsed target cells

IFPRFFMVAK (a peptide derived from URLC10) [SEQ ID NO 13, URLC10-derived 10mer peptide, start position 132]
CTL activity of peptide-stimulated CTL clone against control cells ([1]; COS7 cells transfected with either full-length URLC10 or HLA-A*1101): significant specific CTL activity was not detected | CTL activity of peptide-stimulated CTL clone ([1]; against COS7 cells expressing both URLC10 and HLA-A*1101): potent CTL activity | IFN-gamma production of CTL clone ([2]; CTL clone by limiting dilution, against peptide-pulsed C1R-A11 cells): Potent IFN-gamma production | IFN-gamma production of CTL line [2, 5]: potent IFN-gamma production | peptide-specific CTL activity (IFN-gamma production) (peptide-pulsed C1R-A11): potent IFN-gamma production

KIFPRFFMVAK (a peptide derived from URLC10) [SEQ ID NO 31, URLC10-derived 11mer peptide, start position 131]
peptide-specific CTL activity (IFN-gamma production) (peptide-pulsed C1R-A03): potent IFN-gamma production | IFN-gamma production of CTL clone ([3]; CTL clone by limiting dilution, against peptide-pulsed C1R-A03 cells): Potent IFN-gamma production | IFN-gamma production of CTL line [3, 5]: potent IFN-gamma production | CTL activity of peptide-stimulated CTL clone against control cells ([4]; COS7 cells transfected with either full-length URLC10 or HLA-A*0301): significant specific CTL activity was not detected | CTL activity of peptide-stimulated CTL clone ([4]; against COS7 cells expressing both URLC10 and HLA-A*0301): potent CTL activity
